Each molecule was assayed against T1, human histamine H4 receptor (Homo sapiens, UniProt Q9H3N8) (assay: Binding Assay on Recombinant Human Histamine H4 Receptor). Conditions: competition binding vs 3H-histamine (5 nM, KD 5 nM), membranes of SK-N-MC or COS7 cells transfected with human H4R; Cheng-Prusoff; average of results obtained.
T1 construct: expressed in transfected cells; host or cells: SK-N-MC cells or COS7 cells, transiently transfected with pH4R; cell membranes
Description: Binding Assay on Recombinant Human Histamine H4 Receptor
SK-N-MC cells or COS7 cells were transiently transfected with pH4R and grown in 150 cm^2 tissue culture dishes. Cells were washed with saline solution, scraped with a cell scraper and collected by centrifugation (1000 rpm, 5 min). Cell membranes were prepared by homogenization of the cell pellet in 20 mM Tris-HCl with a polytron tissue homogenizer for 10 sec at high speed. Homogenate was centrifuged at 1000 rpm for 5 min at 4° C. The supernatant was then collected and centrifuged at 20,000×g for 25 min at 4° C. The final pellet was resuspended in 50 mM Tris-HCl. Cell membranes were incubated with ^3H-histamine (5-70 nM) in the presence or absence of excess histamine (10,000 nM). Incubation occurred at room temperature for 45 min. Membranes were harvested by rapid filtration over Whatman GF/C filters and washed 4 times with ice-cold 50 mM Tris HCl. Filters were then dried, mixed with scintillant and counted for radioactivity. SK-N-MC or COS7 cells expressing human histamine H4 receptor were used to measure the affinity of binding of other compounds and their ability to displace ^3H-ligand binding by incubating the above-described reaction in the presence of various concentrations of inhibitor or compound to be tested. For competition binding studies using ^3H-histamine, Ki values were calculated, based on an experimentally determined KD value of 5 nM and a ligand concentration of 5 nM, according to Y. C.

T1 sequence (Q9H3N8 whole entry): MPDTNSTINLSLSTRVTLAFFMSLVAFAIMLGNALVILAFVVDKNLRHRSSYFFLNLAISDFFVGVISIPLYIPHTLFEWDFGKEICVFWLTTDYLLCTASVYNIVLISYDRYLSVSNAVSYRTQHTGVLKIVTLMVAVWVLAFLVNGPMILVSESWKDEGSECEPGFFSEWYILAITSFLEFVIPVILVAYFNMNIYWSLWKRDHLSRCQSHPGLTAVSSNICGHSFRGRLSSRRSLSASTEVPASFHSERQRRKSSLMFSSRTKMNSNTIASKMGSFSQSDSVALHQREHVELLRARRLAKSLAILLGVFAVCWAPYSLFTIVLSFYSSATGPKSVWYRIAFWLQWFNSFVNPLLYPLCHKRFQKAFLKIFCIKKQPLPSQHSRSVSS

Compared with `CN1CCN(c2ncnc(-c3ccc(Cl)s3)n2)CC1` [compound 25, 2-(5-Chloro-thiophen-2-yl)-4-(4-methyl-piperazin-1-yl)-[1,3,5]triazine], `CN1CCN(c2ncnc(-c3cc(Cl)cs3)n2)CC1` [compound 151, 2-(4-Chloro-thiophen-2-yl)-4-(4-methyl-piperazin-1-yl)-[1,3,5]triazine] is 2.1-fold higher in Ki: 66 nM for the first, 137 nM for the second.

Going from `CN1CCN(c2ncnc(-c3cccnc3)n2)CC1` [compound 19, 2-(4-Methyl-piperazin-1-yl)-4-pyridin-3-yl-[1,3,5]triazine] to `CN1CCN(c2ncnc(-c3ccncc3)n2)CC1` [compound 20, 2-(4-Methyl-piperazin-1-yl)-4-pyridin-4-yl-[1,3,5]triazine], the Ki rises from 172 nM to 950 nM (5.5-fold). The first binds more tightly here.

Compared with `CN1CCN(c2ncnc(-c3cccc(C#N)c3)n2)CC1` [compound 111, 3-[4-(4-Methyl-piperazin-1-yl)-[1,3,5]triazin-2-yl]-benzonitrile], `CN1CCN(c2ncnc(-c3cccc(F)c3)n2)CC1` [compound 7, 2-(3-Fluoro-phenyl)-4-(4-methyl-piperazin-1-yl)-[1,3,5]triazine] is 23-fold lower in Ki: 2010 nM for the first, 87 nM for the second. The second binds more tightly here.

Going from `CN1CCN(c2ncnc(-c3ccc4ccccc4c3)n2)CC1` [compound 117, 2-(4-Methyl-piperazin-1-yl)-4-naphthalen-2-yl-[1,3,5]triazine] to `CN1CCN(c2ncnc(-c3cccc4ccccc34)n2)CC1` [compound 112, 2-(4-Methyl-piperazin-1-yl)-4-naphthalen-1-yl-[1,3,5]triazine], the Ki falls from greater than 10000 nM to 1510 nM.

Going from `CN1CCN(c2ncnc(-c3ccc(-c4ccccc4)cc3)n2)CC1` [compound 116, 2-Biphenyl-4-yl-4-(4-methyl-piperazin-1-yl)-[1,3,5]triazine] to `CN1CCN(c2ncnc(-c3ccccc3)n2)CC1` [compound 118, 2-(4-Methyl-piperazin-1-yl)-4-phenyl-[1,3,5]triazine], the Ki falls from greater than 10000 nM to 128 nM.

Compared with `CN1CCN(c2ncnc(-c3csc4ccccc34)n2)CC1` [compound 144, 2-Benzo[b]thiophen-3-yl-4-(4-methyl-piperazin-1-yl)-[1,3,5]triazine], `CN1CCN(c2ncnc(-c3cc4ccccc4s3)n2)CC1` [compound 21, 2-Benzo[b]thiophen-2-yl-4-(4-methyl-piperazin-1-yl)-[1,3,5]triazine] is 6.7-fold higher in Ki: 347 nM for the first, 2330 nM for the second.

First: CN1CCN(c2ccnc(-c3csc(C#N)c3)c2)CC1 [compound 129]
Second: CN1CCN(c2ccnc(-c3ccsc3)c2)CC1 [compound 26]
The Ki of the first is 12-fold higher: 443 nM for the first, 37 nM for the second.

`CN1CCN(c2ncnc(-c3ccc(F)cc3Cl)n2)CC1` [compound 138, 2-(2-Chloro-4-fluoro-phenyl)-4-(4-methyl-piperazin-1-yl)-[1,3,5]triazine] and `CN1CCN(c2ncnc(-c3ccc(F)cc3F)n2)CC1` [compound 122, 2-(2,4-Difluoro-phenyl)-4-(4-methyl-piperazin-1-yl)-[1,3,5]triazine] are within 1.5-fold of each other in Ki: 99 nM for the first, 94 nM for the second.

First: Cc1ccc(-c2cc(N3CCN(C)CC3)ccn2)cc1Cl [compound 37]
Second: CN1CCN(c2ccnc(-c3ccc(F)c(Cl)c3)c2)CC1 [compound 30]
The Ki of the first is 2.1-fold lower: 65 nM for the first, 138 nM for the second. The first binds more tightly here.

Compared with `COc1cscc1-c1ncnc(N2CCN(C)CC2)n1` [compound 130, 2-(4-Methoxy-thiophen-3-yl)-4-(4-methyl-piperazin-1-yl)-[1,3,5]triazine], `CN1CCN(c2ncnc(-c3ccsc3)n2)CC1` [compound 1, 2-(4-Methyl-piperazin-1-yl)-4-thiophen-3-yl-[1,3,5]triazine] is 15-fold lower in Ki: 643 nM for the first, 44 nM for the second. The second binds more tightly here.

Compared with `CN1CCN(c2ncnc(-c3sccc3Cl)n2)CC1` [compound 17, 2-(3-Chloro-thiophen-2-yl)-4-(4-methyl-piperazin-1-yl)-[1,3,5]triazine], `CN1CCN(c2ncnc(-c3sccc3Br)n2)CC1` [compound 15, 2-(3-Bromo-thiophen-2-yl)-4-(4-methyl-piperazin-1-yl)-[1,3,5]triazine] is 4-fold lower in Ki: 8 nM for the first, 2 nM for the second. The second binds more tightly here.

First: CN1CCN(c2ncnc(-c3ccc(F)c(F)c3)n2)CC1 [compound 5, 2-(3,4-Difluoro-phenyl)-4-(4-methyl-piperazin-1-yl)-[1,3,5]triazine]
Second: Cc1ccc(-c2ncnc(N3CCN(C)CC3)n2)cc1F [compound 3, 2-(3-Fluoro-4-methyl-phenyl)-4-(4-methyl-piperazin-1-yl)-[1,3,5]triazine]
The Ki of the first is 1.5-fold higher: 33 nM for the first, 22 nM for the second. The second binds more tightly here.

Going from `Cc1cscc1-c1cc(N2CCN(C)CC2)ccn1` [compound 29] to `CN1CCN(c2ccnc(-c3sccc3Cl)c2)CC1` [compound 148], the Ki rises from 64 nM to 107 nM (1.7-fold). The first binds more tightly here.

Compared with `Cc1nc(-c2sccc2Br)nc(N2CCN(C)CC2)n1` [compound 23, 2-(3-Bromo-thiophen-2-yl)-4-methyl-6-(4-methyl-piperazin-1-yl)-[1,3,5]triazine], `CN1CCCN(c2ncnc(-c3sccc3Br)n2)CC1` [compound 24, 1-[4-(3-Bromo-thiophen-2-yl)-[1,3,5]triazin-2-yl]-4-methyl-[1,4]diazepane] is 8.6-fold higher in Ki: 31 nM for the first, 267 nM for the second. The first binds more tightly here.

Going from `Cc1cc(-c2ncnc(N3CCN(C)CC3)n2)c(C(F)(F)F)o1` [compound 22, 2-(4-Methyl-piperazin-1-yl)-4-(5-methyl-2-trifluoromethyl-furan-3-yl)-[1,3,5]triazine] to `Cc1ccc(F)cc1-c1ncnc(N2CCN(C)CC2)n1` [compound 123, 2-(5-Fluoro-2-methyl-phenyl)-4-(4-methyl-piperazin-1-yl)-[1,3,5]triazine], the Ki falls from 757 nM to 60 nM (13-fold).

Compared with `CN1CCN(c2ncnc(-c3ccc(Cl)nc3)n2)CC1` [compound 16, 2-(6-Chloro-pyridin-3-yl)-4-(4-methyl-piperazin-1-yl)-[1,3,5]triazine], `CN1CCN(c2ncnc(-c3ccc(Cl)c(Cl)c3)n2)CC1` [compound 14, 2-(3,4-Dichloro-phenyl)-4-(4-methyl-piperazin-1-yl)-[1,3,5]triazine] is 1.7-fold lower in Ki: 50 nM for the first, 30 nM for the second. The second binds more tightly here.

`CN1CCN(c2ncnc(-c3cccs3)n2)CC1` [compound 2, 2-(4-Methyl-piperazin-1-yl)-4-thiophen-2-yl-[1,3,5]triazine] and `Cc1ccsc1-c1ncnc(N2CCN(C)CC2)n1` [compound 136] are within 1.5-fold of each other in Ki: 76 nM for the first, 79 nM for the second.

Going from `CN1CCN(c2ccnc(-c3ccoc3)c2)CC1` [compound 28] to `CN1CCN(c2ccnc(-c3ccco3)c2)CC1` [compound 27], the Ki rises from 25 nM to 87 nM (3.5-fold).

Compared with `CN1CCN(c2ccnc(-c3cccc(O)c3)c2)CC1` [compound 33], `CN1CCN(c2ccnc(-c3ccc(F)c(F)c3)c2)CC1` [compound 34] is 6.4-fold lower in Ki: 577 nM for the first, 90 nM for the second.

Compared with `CN1CCN(c2ncnc(-c3cc(F)c(F)c(F)c3)n2)CC1` [compound 11, 2-(4-Methyl-piperazin-1-yl)-4-(3,4,5-trifluoro-phenyl)-[1,3,5]triazine], `Cc1nc(-c2cc(F)c(F)c(F)c2)nc(N2CCN(C)CC2)n1` [compound 147, 2-Methyl-4-(4-methyl-piperazin-1-yl)-6-(3,4,5-trifluoro-phenyl)-[1,3,5]triazine] is 28-fold higher in Ki: 7 nM for the first, 193 nM for the second.

Compared with `Cc1ccc(-c2ncnc(N3CCN(C)CC3)n2)cc1` [compound 4, 2-(4-Methyl-piperazin-1-yl)-4-p-tolyl-[1,3,5]triazine], `CN1CCN(c2ncnc(-c3ccc(F)cc3)n2)CC1` [compound 12, 2-(4-Fluoro-phenyl)-4-(4-methyl-piperazin-1-yl)-[1,3,5]triazine] is 2.1-fold lower in Ki: 75 nM for the first, 35 nM for the second.

Going from `CN1CCCN(c2ccnc(-c3ccsc3)c2)CC1` [compound 39] to `Cc1ccc(-c2cc(N3CCN(C)CC3)ccn2)cc1` [compound 32], the Ki falls from 433 nM to 129 nM (3.4-fold).

First: CN1CCN(c2ccnc(-c3cccc(-c4ccc(C(=O)N5CCOCC5)cc4)c3)c2)CC1 [compound 63]
Second: CN1CCN(c2ccnc(-c3cccc(-c4ccccc4)c3)c2)CC1 [compound 38]
The Ki of the first is higher: no less than 10000 nM for the first, 52 nM for the second.

Compared with `Cc1cc(-c2ncnc(N3CCN(C)CC3)n2)ccc1F` [compound 115, 2-(4-Fluoro-3-methyl-phenyl)-4-(4-methyl-piperazin-1-yl)-[1,3,5]triazine], `CN1CCN(c2ncnc(-c3ccc(Cl)cc3)n2)CC1` [compound 13, 2-(4-Chloro-phenyl)-4-(4-methyl-piperazin-1-yl)-[1,3,5]triazine] is 11-fold lower in Ki: 111 nM for the first, 10 nM for the second. The second binds more tightly here.

Going from `CN1CCN(c2ncnc(-c3cc(F)cc(F)c3)n2)CC1` [compound 137, 2-(3,5-Difluoro-phenyl)-4-(4-methyl-piperazin-1-yl)-[1,3,5]triazine] to `CN1CCN(c2ncnc(-c3cc(Br)cs3)n2)CC1` [compound 9], the Ki falls from 78 nM to 22 nM (3.5-fold).

Compared with `CN1CCN(c2ncnc(-c3ccc(-c4ccccn4)s3)n2)CC1` [compound 131, 2-(4-Methyl-piperazin-1-yl)-4-(5-pyridin-2-yl-thiophen-2-yl)-[1,3,5]triazine], `CN1CCN(c2ccnc(-c3ccc(-c4cccs4)s3)c2)CC1` [compound 145] is lower in Ki: greater than 10000 nM for the first, 268 nM for the second.

First: CN1CCC(N(C)c2ccnc(-c3ccsc3)c2)C1 (stereo not shown) [compound 40]
Second: CN1CCCN(c2cc(-c3cccs3)ncn2)CC1 [compound 68]
The Ki of the first is 2.2-fold higher: 867 nM for the first, 397 nM for the second.

For `CN1CCN(c2ncnc(-c3ccc([N+](=O)[O-])cc3)n2)CC1` [compound 121, 2-(4-Methyl-piperazin-1-yl)-4-(4-nitro-phenyl)-[1,3,5]triazine], the Ki was 107 nM.

From patent US8022209B2, “Substituted nitrogen-containing heteroaryl derivatives useful as modulators of the histamine H4 receptor” (Janssen Pharmaceutica NV, priority 2007, dated 2011)
